# Laboratory results as given in US20250129070A1, “BIFUNCTIONAL ANDROGEN RECEPTOR COMPOUNDS” (priority 2023, published 2025).
# Test system: AR / CBP ternary complex
# Experiment: Ternary complex formation assay (sandwich ELISA, AR capture / CBP detection) in VCaP cell lysates
# Type: cell-based
# Settings: 1.5 hours treatment, sandwich ELISA (AR capture, CBP or p300 detection)
# Experimental: Preparation of Mouse Anti-AR Antibody Coated 96 Well Plates
# Black MaxiSorp plates: coat with 50 μL of mouse 1/50 diluted AR antibody (Monoclonal Antibody (AR 441 from Thermo Fisher); diluted in phosphate buffered saline (PBS). Spin the liquid to the bottom of the wells, if necessary. Incubate overnight at 4° C. Next day, wash 3 times with 200 μL of TBST. Block with 200 μL of blocking buffer (5% BSA in TBST) at room temperature for 2 hours (BSA: A4503 or A2153 from Sigma). Wash plates 3 times with TBST. Plates are ready for lysates Preparation of dimerizer treated lysates
# Culture cells in 96 wells at 50K VCaP cells/well for at least 3 days. Plate in 5% Omega charcoal stripped FBS in total volume of 200 uL. Treat with bifunctional for 1.5 hours by adding 1 μL of 200× stock in DMSO. Aspirate media/compound. Add and pipet-to-mix 70 μL of 1× AlphaLisa Lysis Buffer to each well (Perkin Elmer, AlphaLISA SureFire Ultra, diluted in water). Pipet up and down when adding lysis buffer to disrupt cells. Let lysis proceed for 30 min at 4° C.
# Incubate for 1 hour at room temperature. Flick out the lysates. Wash 3 times with TBST. Add 75 μL of rabbit CBP or p300 antibody to each well (diluted 1:5000 in blocking buffer (5% BSA in TBST). CBP antibody: (D6C5) Rabbit mAb #7389; p300 antibody: (D8Z4E) Rabbit mAb #86377. Incubate overnight at 4° C. Wash 3 times with 300 uL TBST, each time on shaker for 5-10 min. Prepare goat anti-rabbit antibody conjugated to HRP (1/100K dilution in blocking buffer) Invitrogen Catalog number: 32260. Add 75 μL of HRP-conjugated goat anti-rabbit antibody. Incubate at room temperature for 1 hour. Flick out the HRP-antibody mixture. Wash 7-8 times with TBST, each time on shaker for 10 min. Later washes try to overflow the wells so that no residual HRP remains bound to the sides of the well. Prepare and add 75 uL/well of QuantaRed Enhance Chemifluorescent HRP Substrate solution. Immediately read fluorescence on BMG ClarioStar (ex: 570/em 585), and repeat the read in 5 minutes and 15 minutes.
row,SMILES,EC50
1,"CC(=O)N1CCc2c(c(-c3cccc4cc(-c5ccc(C(=O)N6CCC(OCc7ncc(C(=O)NC8C(C)(C)C(Oc9ccc(C#N)c(Cl)c9)C8(C)C)cn7)C6)nc5)ncc34)nn2C2CCOCC2)C1 (racemic) [Compound 131, N-[3-(3-chloro-4-cyano-phenoxy)-2,2,4,4-tetramethyl-cyclobutyl]-2-[[rac-(3S)-1-[5-[8-(5-acetyl-1-tetrahydropyran-4-yl-6,7-dihydro-4H-pyrazolo[4,3-c]pyridin-3-yl)-3-isoquinolyl]pyridine-2-carbonyl]pyrrolidin-3-yl]oxymethyl]pyrimidine-5-carboxamide]",< 1 nM
2,"CC(=O)N1CCc2c(c(-c3cccc4cc(-c5cnn(CC6CCN(c7ncc(C(=O)NC8C(C)(C)C(Oc9ccc(C#N)c(Cl)c9)C8(C)C)cn7)CC6)c5)ncc34)nn2C2CCOCC2)C1 (stereo not drawn) [Compound 137, 2-[4-[[4-[8-(5-acetyl-1-tetrahydropyran-4-yl-6,7-dihydro-4H-pyrazolo[4,3-c]pyridin-3-yl)-3-isoquinolyl]pyrazol-1-yl]methyl]-1-piperidyl]-N-[3-(3-chloro-4-cyano-phenoxy)-2,2,4,4-tetramethyl-cyclobutyl]pyrimidine-5-carboxamide]",< 1 nM
3,"CC(=O)N1CCc2c(c(N3CCCc4cc(-c5cnn(C)c5)c(C(F)F)cc43)nn2C2CCN(CC3CCN(c4ccc(C(=O)NC5C(C)(C)C(Oc6ccc(C#N)c(Cl)c6)C5(C)C)nn4)CC3)CC2)C1 (stereo not drawn) [Compound 117, 6-[4-[[4-[5-acetyl-3-[7-(difluoromethyl)-6-(1-methylpyrazol-4-yl)-3,4-dihydro-2H-quinolin-1-yl]-6,7-dihydro-4H-pyrazolo[4,3-c]pyridin-1-yl]-1-piperidyl]methyl]-1-piperidyl]-N-[3-(3-chloro-4-cyano-phenoxy)-2,2,4,4-tetramethyl-cyclobutyl]pyridazine-3-carboxamide]",1 to 10 nM

# More lines, now with the values ahead:
row,EC50,SMILES
1,< 1 nM,"CC(=O)N1CCc2c(c(-c3cccc4cc(-c5cnn(C)c5)ncc34)nn2C2CCN(CC3C(C)CN(c4ncc(C(=O)NC5C(C)(C)C(Oc6ccc(C#N)c(Cl)c6)C5(C)C)cn4)CC3C)CC2)C1 (stereo not drawn) [Compound 440, 2-[4-[[4-[5-acetyl-3-[3-(1-methylpyrazol-4-yl)-8-isoquinolyl]-6,7-dihydro-4H-pyrazolo[4,3-c]pyridin-1-yl]-1-piperidyl]methyl]-3,5-dimethyl-1-piperidyl]-N-[3-(3-chloro-4-cyano-phenoxy)-2,2,4,4-tetramethyl-cyclobutyl]pyrimidine-5-carboxamide]"
2,10 to 100 nM,"CC(=O)N1CCc2c(c(N3CCCc4cc(-c5cnn(C)c5)c(C(F)F)cc43)nn2C2CN(CCN3CCN(c4ncc(C(=O)NC5C(C)(C)C(Oc6ccc(C#N)c(Cl)c6)C5(C)C)cn4)CC3)C2)C1 (stereo not drawn) [Compound 161, 2-[4-[2-[3-[5-acetyl-3-[7-(difluoromethyl)-6-(1-methylpyrazol-4-yl)-3,4-dihydro-2H-quinolin-1-yl]-6,7-dihydro-4H-pyrazolo[4,3-c]pyridin-1-yl]azetidin-1-yl]ethyl]piperazin-1-yl]-N-[3-(3-chloro-4-cyano-phenoxy)-2,2,4,4-tetramethyl-cyclobutyl]pyrimidine-5-carboxamide]"
3,< 1 nM,"CC(=O)N1CCc2c(c(-c3cccc4cc(-c5ccc(CC6CCN(c7ncc(C(=O)NC8C(C)(C)C(Oc9ccc(C#N)c(Cl)c9)C8(C)C)cn7)CC6)nc5)ncc34)nn2C2CCOCC2)C1 (stereo not drawn) [Compound 140, 2-[4-[[5-[8-(5-acetyl-1-tetrahydropyran-4-yl-6,7-dihydro-4H-pyrazolo[4,3-c]pyridin-3-yl)-3-isoquinolyl]-2-pyridyl]methyl]-1-piperidyl]-N-[3-(3-chloro-4-cyano-phenoxy)-2,2,4,4-tetramethyl-cyclobutyl]pyrimidine-5-carboxamide]"
